Measurements: article PMC10253812, “Novel 2-alkythio-4-chloro-N-[imino(heteroaryl)methyl]benzenesulfonamide Derivatives: Synthesis, Molecular Structure, Anticancer Activity and Metabolic Stability” (International Journal of Molecular Sciences, 2023)

Columns and labels:
[1] = system: HCT-116 (colon cancer) cell line; assay: MTT cell viability assay, HCT-116; assay type: cell-based; conditions: Homo sapiens, 72 h of incubation
Experimental: (§1) Compounds 8–24 were evaluated in vitro for their cytotoxic effect against three human cancer cell lines, i.e., HeLa (cervical cancer), HCT-116 (colon cancer) and MCF-7 (breast cancer), and the non-tumor cell line HaCaT using the MTT assay after 72 h of incubation. The results of tests are presented in Table 1 as IC50, indicating the concentration required for 50% inhibition of cell viability. Compounds 8–10 and 14–18 are not presented in the Table 1 because of their low potency (IC50 > 100 µM).
(§2) All chemicals, if not stated otherwise, were obtained from Sigma-Aldrich (St. Louis, MO, USA). The MCF-7, HeLa and HaCaT cell lines were purchased from Cell Lines Services (Eppelheim, Germany), and the HCT-116 cell line was purchased from ATCC (ATCC-No: CCL-247). The cells were cultured in Dulbecco’s modified Eagle’s medium (DMEM) supplemented with 10% fetal bovine serum, 2 mM glutamine, 100 units/mL of penicillin and 100 μg/mL of streptomycin. The cultures were maintained in a humidified atmosphere with 5% CO2 at 37 °C, in an incubator (Heraeus, HeraCell).
(§3) Cytotoxicity assay: Cell viability was determined using the MTT (3-(4,5-dimethylthiazol-2-yl)-2,5diphenyltetrazoliumbromide) assay. The cells were seeded in 96-well plates at a density of 5 × 10^3 cells/well and treated for 24, 48 and 72 h with the examined compounds in the concentration range 1–100 μM. Following treatment, MTT (0.5 mg/mL) was added to the medium, and the cells were further incubated for 2 h at 37 °C. the cells were lysed with DMSO, and the absorbance of the formazan solution was measured at 550 nm with a plate reader (Victor, 1420 multilabel counter). The experiment was performed in triplicate. The values are expressed as the mean ± SD of at least three independent experiments.

[2] = system: HaCaT (immortalized human keratinocytes); assay: MTT cell viability assay, non-tumor HaCaT; assay type: cell-based; conditions: Homo sapiens, HaCaT, 72 h of incubation, non-tumor cell line
Experimental: as §1
We also performed an assay on the non-tumor cell line HaCaT (immortalized human keratinocytes) to assess if the effect of 11–13 was selective toward HeLa cells or resulted from a more general toxic activity.
as §2, §3

[3] = system: caspase activity in HeLa cells; assay: Caspase activity determination (FLICA, FAM-VAD-FMK), flow cytometry; assay type: cell-based, human; conditions: HeLa, 5, 7 and 10 µM, 24 h
Experimental: Apoptosis induction was further determined by examining the effects of 11, 12 and 13 on caspase activation in HeLa cells. Caspase activity induction was determined with the use of the fluorescently labeled caspase inhibitor-FAM-VAD-FMK (a carboxyfluorescein derivative of valylalanylaspartic acid fluoromethyl ketone). The caspase inhibitor binds to active caspases inhibiting their enzymatic activity, thus allowing caspase activity quantification through determining the fluorescent intensity of the bound inhibitor. […] Increased caspase activation was shown by the increased fluorescence of the caspase inhibitor in the cell population, as indicated in Figure 6.
Caspase Activity Determination: Caspase activity was determined with the FLICA Apoptosis Detection Kit (Immunochemistry Technologies) according to the manufacturer’s instructions. The cells were treated with comp. 11, 12 and 13 (5, 7 and 10 µM) for 24 h, after which the cells were collected and suspended in a buffer containing the caspase inhibitor, i.e., a carboxyfluorescein-labeled fluoromethyl ketone peptide. The cells were subsequently incubated for 1 h at 37 °C under 5% CO2 and, next, they were washed with a washing buffer. The fluorescence intensity of fluorescein was determined by flow cytometry (BD FACSCalibur), and caspase activity was determined as the amount of fluorescence emitted from the caspase inhibitors bound to the caspases. The data were analyzed with Flowing software (version 2.5).

| Compound | IC50 [1] [µM] | IC50 [2] [µM] | caspase activity induction [3] |
| --- | --- | --- | --- |
| Cc1cc(S(=O)(=O)NC(=N)n2ccn(C)c2=S)c(SCc2ccc(Cl)cc2)cc1Cl [Compound 11, 4-Chloro-N-[imino(3-methyl-2-thioxo-2,3-dihydro-1H-imidazol-1-yl)methyl]-5-methyl-2-(4-chlorobenzylthio)benzenesulfonamide] | 11 ± 0.3 | 18 ± 0.5 | induced caspase activity in HeLa cells in a dose-dependent manner |
| Cc1cc(S(=O)(=O)NC(=N)n2ccn(C)c2=S)c(SCc2cc3c(cc2Cl)OCO3)cc1Cl [Compound 12] | > 100 | 20 ± 1 | induced caspase activity in HeLa cells in a dose-dependent manner |
| Cc1cc(S(=O)(=O)NC(=N)n2ccn(C)c2=S)c(SCc2cccc3ccccc23)cc1Cl [Compound 13, 4-Chloro-N-[imino(3-methyl-2-thioxo-2,3-dihydro-1H-imidazol-1-yl)methyl]-5-methyl-2-(naphthalen-1-ylmethylthio)benzenesulfonamide] | 73 ± 2 | 18 ± 0.5 | induced caspase activity in HeLa cells in a dose-dependent manner |
